From patent US20240279241A1, “PYRIDO[4,3-D]PYRIMIDINE COMPOUNDS CAPABLE OF INHIBITING KRAS MUTANT PROTEINS” (Redx Pharma PLC, priority 2021, published 2024)

Legend:
Type in all cases: biochemical
KRAS G12V = biological target: T1, KRAS G12V (Homo sapiens, UniProt P01116, G12V); test: HTRF nucleotide exchange assay (NEA), KRAS G12V
T1 construct: 4 nM KRAS; aa1-188 containing the G12V, G12C, G12A or G12S amino acid substitution
Method in brief: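 After a further 30 minutes at room temperature, time-resolved fluorescence was read on a PerkinElmer Envision. The buffer contained 10 mM HEPES pH7.3, 150 mM NaCl, 5 mM MgCl2, 0.05% BSA, 0.0025% NP-40 and 100 mM KF. DMSO (0.3%) gave the Max signal and unlabeled GOP (1 μM) the Min signal. IC50 came from four-parameter logistic fits of at least two independent replicates.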

KRAS G13D = biological target: T2, KRAS G13D (Homo sapiens, UniProt P01116, G13D); test: HTRF nucleotide exchange assay (NEA), KRAS G13D; details: recombinant human KRAS G13D aa1-188, 2 nM; lowest class = % inhibition at 10 μM
T2 construct: Recombinant human RAS protein (2 nM); aa1-188 KRAS WT
Experimental: (§1) The capacity of compounds to bind KRAS G12D, other KRAS mutants and wildtype RAS isoforms was quantified using a HTRF nucleotide exchange assay. Recombinant human RAS protein (2 nM; aa1-188 KRAS WT, HRAS WT, NRAS WT, or KRAS containing the containing the G12D, G13D or Q61H amino acid substitutions, or 4 nM KRAS; aa1-188 containing the G12V, G12C, G12A or G12S amino acid substitution, an N-terminal 6×His-tag and leader sequence), and 2 nM Europium-labeled anti-6×His antibody were mixed in assay buffer (10 mM HEPES pH7.3, 150 mM NaCl, 5 mM MgCl2, 0.05% BSA, 0.0025% NP-40 and 100 mM KF) with various concentrations of compound in a 384-well plate and a volume of 5 uL. After a 60-minute incubation at room temperature, 5 ul of 200 nM EDA-GTP-DY647P1 (diluted in assay buffer) was added to the plate. Following 30-minute incubation at room temperature, time-resolved fluorescence was measured on a PerkinElmer Envision plate reader. DMSO (0.3%) and unlabeled […] (1 μM) or equivalent tool compound were used to generate the Max and Min assay signals, respectively. Data was analysed using a four-parameter logistic model to calculate IC50 values, with at least two independent replicates were performed for each compound.

KRAS Q61H = biological target: T3, KRAS Q61H (Homo sapiens, UniProt P01116, Q61H); test: HTRF nucleotide exchange assay (NEA), KRAS Q61H
T3 construct: Recombinant human RAS protein (2 nM); aa1-188 KRAS WT
Experimental: as §1

KRAS G12C = biological target: T4, KRAS G12C (Homo sapiens, UniProt P01116, G12C); test: HTRF nucleotide exchange assay (NEA), KRAS G12C
T4 construct: 4 nM KRAS; aa1-188 containing the G12V, G12C, G12A or G12S amino acid substitution
Method in brief: (§2)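 Cmpd + His-KRAS(1-188) [WT, G13D 2 nM; G12C, G12S 4 nM] + Eu anti-6×His 2 nM, pH 7.3 HEPES/NaCl/MgCl2/KF buffer, 60 min RT. Add EDA-GTP-DY647P1 (200 nM soln), 30 min RT. HTRF read. DMSO = max signal; 4PL IC50.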

KRAS G12S = biological target: T5, KRAS G12S (Homo sapiens, UniProt P01116, G12S); test: HTRF nucleotide exchange assay (NEA), KRAS G12S
T5 construct: 4 nM KRAS; aa1-188 containing the G12V, G12C, G12A or G12S amino acid substitution
Experimental: as §1

KRAS WT = biological target: T6, KRAS WT (Homo sapiens, UniProt P01116); test: HTRF nucleotide exchange assay (NEA), KRAS WT
T6 construct: Recombinant human RAS protein (2 nM); aa1-188 KRAS WT
Method in brief: as §2

KRAS G12A = biological target: T7, KRAS G12A (Homo sapiens, UniProt P01116, G12A); test: HTRF nucleotide exchange assay (NEA), KRAS G12A
T7 construct: 4 nM KRAS; aa1-188 containing the G12V, G12C, G12A or G12S amino acid substitution
Experimental: as §1

KRAS G12D = biological target: T8, KRAS G12D (Homo sapiens, UniProt P01116, G12D); test: HTRF nucleotide exchange assay (NEA), KRAS G12D; details: recombinant human KRAS G12D aa1-188, 2 nM; lowest class = % inhibition at 10 μM
T8 construct: Recombinant human RAS protein (2 nM)
Method in brief: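 Compound binding to KRAS G12D was measured by HTRF nucleotide exchange. Recombinant human KRAS G12D (aa1-188, N-terminal 6×His-tag, 2 nM) and 2 nM Europium anti-6×His antibody were combined with compound in 5 uL assay buffer in 384-well plates for 60 minutes at room temperature, then 5 ul of 200 nM EDA-GTP-DY647P1 was added for 30 minutes before time-resolved fluorescence reading.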

T8 sequence (P01116 1-188 isoform P01116-2 G12D): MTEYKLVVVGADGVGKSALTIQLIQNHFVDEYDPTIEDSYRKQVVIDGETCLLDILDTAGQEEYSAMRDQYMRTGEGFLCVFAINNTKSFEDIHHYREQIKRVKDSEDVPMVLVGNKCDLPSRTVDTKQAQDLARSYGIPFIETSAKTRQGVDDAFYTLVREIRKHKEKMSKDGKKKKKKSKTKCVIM
T2 sequence (P01116 1-188 isoform P01116-2 G13D): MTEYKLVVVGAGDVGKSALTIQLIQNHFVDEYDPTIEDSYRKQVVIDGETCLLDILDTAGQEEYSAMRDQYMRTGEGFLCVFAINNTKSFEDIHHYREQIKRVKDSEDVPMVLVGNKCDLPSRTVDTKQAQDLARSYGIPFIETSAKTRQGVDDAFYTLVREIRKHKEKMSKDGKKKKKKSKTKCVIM
T5 sequence (P01116 1-188 isoform P01116-2 G12S): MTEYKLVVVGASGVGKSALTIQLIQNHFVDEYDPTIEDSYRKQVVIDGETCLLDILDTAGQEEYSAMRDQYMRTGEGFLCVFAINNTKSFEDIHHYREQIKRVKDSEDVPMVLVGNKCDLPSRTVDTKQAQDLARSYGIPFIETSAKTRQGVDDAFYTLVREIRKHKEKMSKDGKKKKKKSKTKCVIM
T6 sequence (P01116 1-188 isoform P01116-2): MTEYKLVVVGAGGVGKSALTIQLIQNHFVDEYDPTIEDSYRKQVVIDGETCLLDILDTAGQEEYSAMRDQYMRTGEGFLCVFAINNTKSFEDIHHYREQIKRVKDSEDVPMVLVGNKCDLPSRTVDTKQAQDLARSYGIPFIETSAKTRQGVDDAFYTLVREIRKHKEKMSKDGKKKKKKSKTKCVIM
T4 sequence (P01116 1-188 isoform P01116-2 G12C): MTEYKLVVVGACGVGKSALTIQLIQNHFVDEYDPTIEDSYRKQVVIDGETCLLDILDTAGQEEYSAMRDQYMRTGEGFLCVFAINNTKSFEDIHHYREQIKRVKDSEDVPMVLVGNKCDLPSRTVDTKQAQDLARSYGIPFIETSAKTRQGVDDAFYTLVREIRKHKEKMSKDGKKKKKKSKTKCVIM
T7 sequence (P01116 1-188 isoform P01116-2 G12A): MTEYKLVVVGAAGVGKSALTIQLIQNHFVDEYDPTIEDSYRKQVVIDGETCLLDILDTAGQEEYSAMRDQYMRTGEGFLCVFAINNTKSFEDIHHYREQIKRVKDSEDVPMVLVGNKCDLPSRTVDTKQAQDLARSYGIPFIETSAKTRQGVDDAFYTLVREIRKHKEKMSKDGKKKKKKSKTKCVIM
T1 sequence (P01116 1-188 isoform P01116-2 G12V): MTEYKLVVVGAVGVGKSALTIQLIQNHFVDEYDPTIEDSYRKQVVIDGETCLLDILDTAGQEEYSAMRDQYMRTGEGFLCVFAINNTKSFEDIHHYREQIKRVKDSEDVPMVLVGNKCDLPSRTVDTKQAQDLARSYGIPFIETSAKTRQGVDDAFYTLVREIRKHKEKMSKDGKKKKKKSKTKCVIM
T3 sequence (P01116 1-188 isoform P01116-2 Q61H): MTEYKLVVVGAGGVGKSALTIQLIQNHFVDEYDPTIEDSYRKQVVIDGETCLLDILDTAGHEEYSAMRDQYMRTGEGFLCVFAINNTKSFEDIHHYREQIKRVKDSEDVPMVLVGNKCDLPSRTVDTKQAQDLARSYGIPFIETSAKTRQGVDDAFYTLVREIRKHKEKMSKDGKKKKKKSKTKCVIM

Row | IC50 (KRAS G12V) | IC50 (KRAS G13D) | IC50 (KRAS Q61H) | IC50 (KRAS G12C) | IC50 (KRAS G12S) | IC50 (KRAS WT) | IC50 (KRAS G12A) | IC50 (KRAS G12D) | SMILES
1 | 10 to 100 nM | > 10000 nM | 100 to 10000 nM | 10 to 100 nM | 100 to 10000 nM | 10 to 100 nM | 10 to 100 nM | 10 to 100 nM | CC1COCCN(c2nc(OCC34CCCN3CCC4)nc3c(F)c(-c4cc(O)cc5ccccc45)ncc23)C1 (stereo not drawn) [Example 19, 4-[8-fluoro-2-(1,2,3,5,6,7-hexahydropyrrolizin-8-ylmethoxy)-4-(6-methyl-1,4-oxazepan-4-yl)pyrido[4,3-d]pyrimidin-7-yl]naphthalen-2-ol]
2 | ≤ 10 nM | > 10000 nM | 10 to 100 nM | ≤ 10 nM | 10 to 100 nM | 10 to 100 nM | ≤ 10 nM | 10 to 100 nM | Oc1cc(-c2ncc3c(N4CCCSCC4)nc(OCC45CCCN4CCC5)nc3c2F)c2ccccc2c1 [Example 38, 4-[8-fluoro-2-(1,2,3,5,6,7-hexahydropyrrolizin-8-ylmethoxy)-4-(1,4-thiazepan-4-yl)pyrido[4,3-d]pyrimidin-7-yl]naphthalen-2-ol]
3 | 100 to 10000 nM | > 10000 nM | 100 to 10000 nM | 100 to 10000 nM | 100 to 10000 nM | 100 to 10000 nM | 100 to 10000 nM | 100 to 10000 nM | Oc1cc(-c2ncc3c(N4CCCC5(CCOC5)C4)nc(OCC45CCCN4CCC5)nc3c2F)c2ccccc2c1 (stereo not drawn) [Example 56, 4-[8-fluoro-2-(1,2,3,5,6,7-hexahydropyrrolizin-8-ylmethoxy)-4-(2-oxa-9-azaspiro[4.5]decan-9-yl)pyrido[4,3-d]pyrimidin-7-yl]naphthalen-2-ol]
